We go through 29 compounds from patent publication US10793563B2, “GCN2 inhibitors and uses thereof” (Merck Patent GmbH, priority 2018, dated 2020).

For orientation: IC50 means the midpoint of a concentration-inhibition curve. Lower therefore signals greater potency in that assay.

Chain of GCN2 kinase (Q9P2K8 whole entry): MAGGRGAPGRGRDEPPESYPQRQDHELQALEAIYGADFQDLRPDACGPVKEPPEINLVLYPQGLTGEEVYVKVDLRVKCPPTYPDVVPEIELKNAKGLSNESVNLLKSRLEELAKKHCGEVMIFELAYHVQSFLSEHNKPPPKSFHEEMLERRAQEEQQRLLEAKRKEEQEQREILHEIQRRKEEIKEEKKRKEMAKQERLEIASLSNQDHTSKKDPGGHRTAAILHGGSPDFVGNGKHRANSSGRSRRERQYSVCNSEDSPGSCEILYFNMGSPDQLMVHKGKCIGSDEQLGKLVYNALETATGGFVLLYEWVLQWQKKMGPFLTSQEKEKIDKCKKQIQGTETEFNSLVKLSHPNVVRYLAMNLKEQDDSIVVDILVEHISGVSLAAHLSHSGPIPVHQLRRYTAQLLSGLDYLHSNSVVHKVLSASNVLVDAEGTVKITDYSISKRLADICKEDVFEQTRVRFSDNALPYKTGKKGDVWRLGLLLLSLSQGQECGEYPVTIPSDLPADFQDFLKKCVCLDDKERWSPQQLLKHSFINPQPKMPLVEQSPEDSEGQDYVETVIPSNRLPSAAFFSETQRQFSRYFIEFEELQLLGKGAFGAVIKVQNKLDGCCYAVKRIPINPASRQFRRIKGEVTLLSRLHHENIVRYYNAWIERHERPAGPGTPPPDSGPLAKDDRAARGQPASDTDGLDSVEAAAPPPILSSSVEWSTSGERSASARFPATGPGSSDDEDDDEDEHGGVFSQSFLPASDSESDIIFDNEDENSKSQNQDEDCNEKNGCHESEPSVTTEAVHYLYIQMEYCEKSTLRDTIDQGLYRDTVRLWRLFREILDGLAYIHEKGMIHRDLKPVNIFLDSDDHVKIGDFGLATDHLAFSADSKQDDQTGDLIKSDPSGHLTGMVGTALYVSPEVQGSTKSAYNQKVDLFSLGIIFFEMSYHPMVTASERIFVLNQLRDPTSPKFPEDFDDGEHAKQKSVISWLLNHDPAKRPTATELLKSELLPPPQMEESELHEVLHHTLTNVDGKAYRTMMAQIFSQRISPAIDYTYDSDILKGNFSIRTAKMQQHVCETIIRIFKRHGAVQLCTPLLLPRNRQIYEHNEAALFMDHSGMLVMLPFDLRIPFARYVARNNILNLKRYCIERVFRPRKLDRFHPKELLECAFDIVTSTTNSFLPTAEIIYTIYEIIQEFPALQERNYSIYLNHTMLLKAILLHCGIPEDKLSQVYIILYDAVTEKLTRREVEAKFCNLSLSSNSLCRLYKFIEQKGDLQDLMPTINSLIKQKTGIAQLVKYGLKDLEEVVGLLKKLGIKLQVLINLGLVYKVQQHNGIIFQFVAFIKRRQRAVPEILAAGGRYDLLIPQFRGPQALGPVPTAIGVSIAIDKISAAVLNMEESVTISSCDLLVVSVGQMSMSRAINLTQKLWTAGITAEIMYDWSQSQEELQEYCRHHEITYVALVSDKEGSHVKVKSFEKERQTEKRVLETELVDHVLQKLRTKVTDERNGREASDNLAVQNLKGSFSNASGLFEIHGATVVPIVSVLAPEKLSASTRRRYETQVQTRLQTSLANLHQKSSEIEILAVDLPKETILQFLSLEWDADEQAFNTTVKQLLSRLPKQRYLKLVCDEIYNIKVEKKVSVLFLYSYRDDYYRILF

This test concerns the target GCN2 kinase (Homo sapiens (Human), UniProt Q9P2K8). The test can be described thus: GCN2 Enzyme Inhibition Assay (Transcreener ADP2 fluorescence polarization). The format is biochemical. The note with it: 280 μM ATP, 200 μM (RS)7 peptide, 4 nM GCN2, 25° C. In outline:
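Transcreener ADP2 fluorescence polarization detection of ADP from 4 nM GCN2 with (RS)7 substrate in 25 mM Tris-HCl pH 7.5, 50 mM NaCl, 10 mM MgCl2, 1 mM DTT. Compound pre-incubated with enzyme 10 min at 25 °C; reaction started by ATP, run 1 h at 25 °C. IC50 and Ki(app) by tight-binding fit.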
(In general: Polarisation of emitted light reports the rotation of a fluorescent probe.)
Compound `Cc1[nH]ncc1[C@@H]1CN(c2ccnc(-c3cnc4cc(F)c(C5CC5)cn34)n2)C[C@H](C)O1` [I-429, (2S,6R)-4-(2-(6-cyclopropyl-7-fluoroimidazo[1,2-a]pyridin-3-yl)pyrimidin-4-yl)-2-methyl-6-(5-methyl-1H-pyrazol-4-yl)morpholine] displayed a half-inhibitory concentration (IC50) below 10 nM. `N#CC1(C(=O)N2CCN(c3ccnc(-c4cnc5ccc(C(F)(F)F)cn45)n3)CC2c2cn[nH]c2)CC1` (centres unmarked) [I-432, 1-(2-(1H-pyrazol-4-yl)-4-(2-(6-(trifluoromethyl)imidazo[1,2-a]pyridin-3-yl)pyrimidin-4-yl)piperazine-1-carbonyl)cyclopropane-1-carbonitrile] yielded an IC50 of 10 to 100 nM.

`N#CC1(C(=O)n2cc([C@@H]3CN(c4ccnc(-c5cnc6ccc(C(F)(F)F)cn56)n4)CCN3)cn2)CC1` [I-433, (R)-1-(4-(4-(2-(6-(trifluoromethyl)imidazo[1,2-a]pyridin-3-yl)pyrimidin-4-yl)piperazin-2-yl)-1H-pyrazole-1-carbonyl)cyclopropane-1-carbonitrile] returned an IC50 of 10 to 100 nM. `C[C@@H]1[C@H](C(N)=O)NCCN1c1ccnc(-c2cnc3ccc(C(F)(F)F)cn23)n1` [I-434, (2R,3R)-3-methyl-4-(2-(6-(trifluoromethyl)imidazo[1,2-a]pyridin-3-yl)pyrimidin-4-yl)piperazine-2-carboxamide] had an IC50 of 100 to 1000 nM. On to `C[C@H]1[C@@H](C(N)=O)NCCN1c1ccnc(-c2cnc3ccc(C(F)(F)F)cn23)n1` [I-435, (2S,3 S)-3-methyl-4-(2-(6-(trifluoromethyl)imidazo[1,2-a]pyridin-3-yl)pyrimidin-4-yl)piperazine-2-carboxamide], for which the IC50 is below 10 nM.

In the case of `C[C@H]1[C@@H](CNS(C)(=O)=O)NCCN1c1ccnc(-c2cnc3ccc(C(F)(F)F)cn23)n1` [I-436, N-(((2R,3 S)-3-methyl-4-(2-(6-(trifluoromethyl)imidazo[1,2-a]pyridin-3-yl)pyrimidin-4-yl)piperazin-2-yl)methyl)methanesulfonamide], the IC50 is 10 to 100 nM. For `C[C@@H]1CN(c2ccnc(-c3cnc4ccc(C(F)(F)F)cn34)n2)C[C@H](C)N1C(=O)C1CC(F)(F)C1` [I-437, (3,3-difluorocyclobutyl)(cis-2,6-dimethyl-4-(2-(6-(trifluoromethyl)imidazo[1,2-a]pyridin-3-yl)pyrimidin-4-yl)piperazin-1-yl)methanone], the IC50 fell in the range of 100 to 1000 nM.

`C[C@@H]1CN(c2ccnc(-c3cnc4ccc(C(F)(F)F)cn34)n2)C[C@H](C)N1C(=O)C1CC1(F)F` (stereo partly drawn) [I-438, (2,2-difluorocyclopropyl)(cis-2,6-dimethyl-4-(2-(6-(trifluoromethyl)imidazo[1,2-a]pyridin-3-yl)pyrimidin-4-yl)piperazin-1-yl)methanone]: the IC50 lay within 10 to 100 nM. In the case of `C[C@@H]1CN(c2ccnc(-c3cnc4ccc(C(F)(F)F)cn34)n2)C[C@H](C)N1S(C)(=O)=O` [I-439, 3-(4-(cis-3,5-dimethyl-4-(methylsulfonyl)piperazin-1-yl)pyrimidin-2-yl)-6-(trifluoromethyl)imidazo[1,2-a]pyridine], the IC50 fell in the range of 100 to 1000 nM. In the case of `CC1C(C(N)=O)NCCN1c1ccnc(-c2cnc3ccc(Cl)cn23)n1` (centres unmarked) [I-451, 4-(2-{6-chloroimidazo[1,2-a]pyridin-3-yl}pyrimidin-4-yl)-3-methylpiperazine-2-carboxamide] it was 10 to 100 nM; in that of `COc1cc(C(=O)N2CCN(c3ccnc(-c4cnc5ccc(C(F)(F)F)cn45)n3)CC2c2cn[nH]c2)ccn1` (centres unmarked) [I-452, (2-(1H-pyrazol-4-yl)-4-(2-(6-(trifluoromethyl)imidazo[1,2-a]pyridin-3-yl)pyrimidin-4-yl)piperazin-1-yl)(2-methoxypyridin-4-yl)methanone], 100 to 1000 nM; in that of `C[C@H]1[C@H](C(N)=O)NCCN1c1ccnc(-c2cnc3cc(F)c(C4CC4)cn23)n1` [I-454, (2R,3 S)-4-(2-(6-cyclopropyl-7-fluoroimidazo[1,2-a]pyridin-3-yl)pyrimidin-4-yl)-3-methylpiperazine-2-carboxamide], 10 to 100 nM. As to `CC1C(C(N)=O)NCCN1c1ccnc(-c2cnc3cc(F)c(C4CC4)cn23)n1` (centres unmarked) [I-455, 4-(2-(6-cyclopropyl-7-fluoroimidazo[1,2-a]pyridin-3-yl)pyrimidin-4-yl)-3-methylpiperazine-2-carboxamide], the IC50 lay within 10 to 100 nM. In turn, `FC(F)(F)c1ccc2ncc(-c3nccc(N4CCN(C5CCOCC5)C(c5cn[nH]c5)C4)n3)n2c1` (centres unmarked) [I-456, 3-(4-(3-(1H-pyrazol-4-yl)-4-(tetrahydro-2H-pyran-4-yl)piperazin-1-yl)pyrimidin-2-yl)-6-(trifluoromethyl)imidazo[1,2-a]pyridine] came in with an IC50 of 10 to 100 nM. For the compound `Fc1ccc(CN2CCN(c3ccnc(-c4cnc5ccc(C(F)(F)F)cn45)n3)CC2c2cn[nH]c2)cc1` (centres unmarked) [I-457, 3-(4-(4-(4-fluorobenzyl)-3-(1H-pyrazol-4-yl)piperazin-1-yl)pyrimidin-2-yl)-6-(trifluoromethyl)imidazo[1,2-a]pyridine], the IC50 fell in the range of 10 to 100 nM.

With `Fc1cccc(CN2CCN(c3ccnc(-c4cnc5ccc(C(F)(F)F)cn45)n3)CC2c2cn[nH]c2)c1` (centres unmarked) [I-458, 3-(4-(4-(3-fluorobenzyl)-3-(1H-pyrazol-4-yl)piperazin-1-yl)pyrimidin-2-yl)-6-(trifluoromethyl)imidazo[1,2-a]pyridine], the concentration for half-maximal inhibition (IC50) was 10 to 100 nM. For `Fc1ccccc1CN1CCN(c2ccnc(-c3cnc4ccc(C(F)(F)F)cn34)n2)CC1c1cn[nH]c1` (centres unmarked) [I-459, 3-(4-(4-(2-fluorobenzyl)-3-(1H-pyrazol-4-yl)piperazin-1-yl)pyrimidin-2-yl)-6-(trifluoromethyl)imidazo[1,2-a]pyridine] the value was below 10 nM; for `FC1(F)CCC(N2CCN(c3ccnc(-c4cnc5ccc(C(F)(F)F)cn45)n3)CC2c2cn[nH]c2)CC1` (centres unmarked) [I-460, 3-(4-(4-(4,4-difluorocyclohexyl)-3-(1H-pyrazol-4-yl)piperazin-1-yl)pyrimidin-2-yl)-6-(trifluoromethyl)imidazo[1,2-a]pyridine], 10 to 100 nM; for `C[C@@H]1CN(c2ccnc(-c3cnc4ccc(C(F)(F)F)cn34)n2)C[C@H](C)N1CC1CCOCC1` [I-462, 3-(4-(cis-3,5-dimethyl-4-((tetrahydro-2H-pyran-4-yl)methyl)piperazin-1-yl)pyrimidin-2-yl)-6-(trifluoromethyl)imidazo[1,2-a]pyridine], 100 to 1000 nM. For the compound `Cc1nnc(C)n1[C@@H]1C[C@H](C)CN(c2nccc(-c3cnc4ccc(C(F)(F)F)cn34)n2)C1` [I-463, 3-(2-((3R,5S)-3-(3,5-dimethyl-4H-1,2,4-triazol-4-yl)-5-methylpiperidin-1-yl)pyrimidin-4-yl)-6-(trifluoromethyl)imidazo[1,2-a]pyridine], the IC50 was 10 to 100 nM. `Cc1nnc(C)n1[C@H]1C[C@H](C)CN(c2nccc(-c3cnc4ccc(C(F)(F)F)cn34)n2)C1` [I-465, 3-(2-((3S,5S)-3-(3,5-dimethyl-4H-1,2,4-triazol-4-yl)-5-methylpiperidin-1-yl)pyrimidin-4-yl)-6-(trifluoromethyl)imidazo[1,2-a]pyridine] had an IC50 of 100 to 1000 nM. For `Cc1nnc(C)n1[C@H]1C[C@@H](C)CN(c2nccc(-c3cnc4ccc(C(F)(F)F)cn34)n2)C1` [I-466, 3-(2-((3S,5R)-3-(3,5-dimethyl-4H-1,2,4-triazol-4-yl)-5-methylpiperidin-1-yl)pyrimidin-4-yl)-6-(trifluoromethyl)imidazo[1,2-a]pyridine], the IC50 is 10 to 100 nM. The compound `Cc1nnc(C)n1[C@@H]1C[C@@H](C)CN(c2nccc(-c3cnc4ccc(C(F)(F)F)cn34)n2)C1` [I-467, 3-(2-((3R,5R)-3-(3,5-dimethyl-4H-1,2,4-triazol-4-yl)-5-methylpiperidin-1-yl)pyrimidin-4-yl)-6-(trifluoromethyl)imidazo[1,2-a]pyridine] gave an IC50 of 10 to 100 nM. `O=C(C1CC12CC2)N1CCN(c2ccnc(-c3cnc4ccc(C(F)(F)F)cn34)n2)CC1c1cn[nH]c1` (centres unmarked) [I-468, (2-(1H-pyrazol-4-yl)-4-(2-(6-(trifluoromethyl)imidazo[1,2-a]pyridin-3-yl)pyrimidin-4-yl)piperazin-1-yl)(spiro[2.2]pentan-1-yl)methanone] returned an IC50 of 100 to 1000 nM. `O=C1CCC(C(=O)N2CCN(c3ccnc(-c4cnc5ccc(C(F)(F)F)cn45)n3)CC2c2cn[nH]c2)N1` (centres unmarked) [I-469, 5-(2-(1H-pyrazol-4-yl)-4-(2-(6-(trifluoromethyl)imidazo[1,2-a]pyridin-3-yl)pyrimidin-4-yl)piperazine-1-carbonyl)pyrrolidin-2-one] returned an IC50 of 10 to 100 nM.

In the case of `C[C@H]1[C@H](CNS(C)(=O)=O)NCCN1c1ccnc(-c2cnc3ccc(C(F)(F)F)cn23)n1` [I-471, N-(((2 S,3 S)-3-methyl-4-(2-(6-(trifluoromethyl)imidazo[1,2-a]pyridin-3-yl)pyrimidin-4-yl)piperazin-2-yl)methyl)methanesulfonamide], the IC50 was in the range of 100 to 1000 nM. On to `O=C1CCC[C@@H](C(=O)N2CCN(c3ccnc(-c4cnc5ccc(C(F)(F)F)cn45)n3)C[C@@H]2c2cn[nH]c2)N1` [I-474, (S)-6-((S)-2-(1H-pyrazol-4-yl)-4-(2-(6-(trifluoromethyl)imidazo[1,2-a]pyridin-3-yl)pyrimidin-4-yl)piperazine-1-carbonyl)piperidin-2-one], for which the IC50 fell in the range of 100 to 1000 nM. `FC(F)(F)c1ccc2ncc(-c3nccc(N4CCN(CC5CC56CC6)C(c5cn[nH]c5)C4)n3)n2c1` (centres unmarked) [I-475, 3-(4-(3-(1H-pyrazol-4-yl)-4-(spiro[2.2]pentan-1-ylmethyl)piperazin-1-yl)pyrimidin-2-yl)-6-(trifluoromethyl)imidazo[1,2-a]pyridine]: the IC50 is 10 to 100 nM. In the case of `Cc1nn(C)cc1C(=O)N1CCN(c2ccnc(-c3cnc4ccc(C(F)(F)F)cn34)n2)C[C@H]1C` [I-479, (R)-(1,3-dimethyl-1H-pyrazol-4-yl)(2-methyl-4-(2-(6-(trifluoromethyl)imidazo[1,2-a]pyridin-3-yl)pyrimidin-4-yl)piperazin-1-yl)methanone], the IC50 was in the range of 100 to 1000 nM.
